Experimental data as given in patent US7431088B2, “Methods of controlled acidization in a wellbore” (Halliburton Energy Services, Inc., priority 2006, dated 2008).
Counter-ions that a name gives are not always drawn.

Legend:
[1] = for hydrolysis / reaction rate (comparison in words): deionized water, molar ratio of CaCO3
Protocol: In the following examples, various ester hydrolysis reactions were run in the presence of calcium carbonate (CaCO3) to simulate the consumption of filter cake material. The acid evolved in each reaction was measured per unit of time. The acid generated upon hydrolysis was rapidly consumed in a secondary reaction that produced carbon dioxide (CO2). The half-life was secured when half of the CaCO3 was consumed. That is, using PV=nRT, the amount of CaCO3 that would yield approximately 1 liter of CO2 was calculated to be about 4.47 grams. We doubled the amount of CaCO3 (8.94 grams) for the reactions and then calculated the half-life based on the yield of 1 liter of CO2. Unless otherwise specified, all half-life quotations are actually the time required for 4.47 grams of CaCO3 to be consumed.
The following general procedure was used in each of the examples. The closed system reactor shown in FIG. 1 was used to measure the amount of CO2 gas that evolved in each reaction. Water or brine was added to a boiling flask 10, which was heated to 100° C. […] Once the liquid was boiling, a weighed amount of ester was added to flask 10. The amount of ester employed was always in ratio to the water or to the make-up water used to formulate the brine except where commercially available brines were used. Following addition of the ester to the boiling liquid, a reflux condenser 12 was affixed to flask 10. The top of condenser 12 was fixed with an adapter 14 to an inlet tube 18 in a 2-hole rubber stopper 16. The inlet tube 18 was passed through stopper 16, providing a seal. An outlet tube 22 was run from the bottom of a flask 20 to a 1,000 mL graduated cylinder 24. The flask 20 was charged with XP-07 base oil, commercially available from Halliburton Energy Services, Inc. The outlet tube 22 served the purpose of discharging the oil into graduated cylinder 24. The hydrolysis reaction produced acid in flask 10 that reacted with the CaCO3 to produce CO2 gas. The gas displaced the oil in flask 20 into graduated cylinder 24. The rate of CO2 evolution thus could be monitored visually by reading of the amount of oil in graduated cylinder 24 per unit of time.
Solutions containing various esters of lactic acid and of glycerol (i.e., monoacetin, ethyl lactate, triacetin, tripropionin), butyl formate (a control), and BDF-325 diethyleneglycol diformate (a control) in neutral water were prepared and combined with a molar ratio of CaCO3. Hydrolysis reactions were then carried out using the resulting solutions at 100° C. The hydrolysis reactions were monitored, and the half-lives of the esters were compared. The volume of oil displaced by the CO2 gas is plotted as a function of time in FIG. 2. […] The butyl formate to CaCO3 molar ratio was doubled for comparison purposes.
Solutions containing 10 volume % monoacetin, diacetin, and triacetin in deionized water were prepared and combined with a molar ratio of CaCO3. Hydrolysis reactions were then carried out using the resulting solutions at 100° C. The hydrolysis reactions were monitored, and the half-lives of the esters were compared. The volume of oil displaced by the CO2 gas is plotted as a function of time in FIG. 3.

[2] = Solubility of ester in water; type: physicochemical

SMILES | effect of doubling the ester to CaCO3 molar ratio on reaction rate [1] | hydrolysis / reaction rate (comparison in words) ([1]; 100° C.) | other results
CCCCOC(=O)C(C)O (stereo not drawn) [Butyl lactate] | doubled its reaction rate | faster than that of the butyl formate | 
CC(=O)OCC(O)COC(C)=O [Diacetin] |  | very similar | 
CCOC(=O)C(C)O (stereo not drawn) [Ethyl Lactate] |  |  | hydrolysis performance in different aqueous solutions ([1]; 10 volume % in deionized water and various brines, 100° C.): performed consistently
CC(=O)OCC(O)CO (stereo not drawn) [Monoacetin] |  |  | half-life relative to target ([1]; buffer): within the targeted range
CC(=O)OCC(COC(C)=O)OC(C)=O [Triacetin] |  | very similar | 
CCCCOC=O [butyl formate, reference compound] | surprisingly similar | slow reaction rate | solubility in water [2]: relative insolubility
